Molecular target: T1, recombinant human KLK5 (Homo sapiens, UniProt Q9Y337)
T1 construct: purchased Novoprotein or R&D Systems C415 or 1108-SE
T1 sequence (Q9Y337 23-293): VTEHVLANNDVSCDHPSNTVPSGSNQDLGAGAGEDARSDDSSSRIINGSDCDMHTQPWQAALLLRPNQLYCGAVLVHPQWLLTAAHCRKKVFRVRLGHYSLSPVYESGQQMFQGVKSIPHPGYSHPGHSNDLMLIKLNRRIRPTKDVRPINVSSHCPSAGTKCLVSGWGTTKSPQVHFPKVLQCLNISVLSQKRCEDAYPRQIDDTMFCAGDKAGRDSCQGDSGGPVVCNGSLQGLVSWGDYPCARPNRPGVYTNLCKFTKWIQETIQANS
Test: Kallikrein (KLK) 5 enzymatic assay (Boc-VPR-AMC fluorogenic substrate)
Format: biochemical
Conditions: recombinant human KLK5 0.1 μg/well, Boc-VPR-AMC 100 μM, pH 7.5, room temperature, 1% DMSO; tested a minimum of three times
Method in brief: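 Fluorogenic rate assay at pH 7.5 (0.1 M NaH2PO4, 1% DMSO, room temperature), run at least three times per compound. Compound was premixed with 0.1 μg/well recombinant human KLK5 before adding 100 μM Boc-VPR-AMC; AMC release was read at ex 380/em 460 nm, and IC50 derived from inhibition of rate vs DMSO control.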

Row | Structure (SMILES) | IC50 [µM]
1 | Nc1nccc2c(-c3ccc4c(c3)C(Oc3cc(F)ccc3CC(=O)O)CC43CCCC3)cccc12 (stereo not shown) [Compound 442c, 2-(2-((5′-(1-aminoisoquinolin-5-yl)-2′,3′-dihydrospiro[cyclopentane-1,1′-inden]-3′-yl)oxy)-4-fluorophenyl)acetic acid] | < 1
2 | Nc1nccc2c(-c3ccc4c(c3)c(COc3ccccc3CC(=O)O)nn4C3CCC3)cccc12 [Compound 69b, 2-(2-((5-(1-aminoisoquinolin-5-yl)-1-cyclobutyl-1H-indazol-3-yl)methoxy)phenyl)acetic acid] | < 1
3 | CC[C@@H](C)n1nc(COc2ccccc2CC(=O)O)c2cc(-c3cccc4c(N)nccc34)ccc21 [Compound 191b, (R)-2-(2-((5-(1-aminoisoquinolin-5-yl)-1-(sec-butyl)-1H-indazol-3-yl)methoxy)phenyl)acetic acid] | < 1
4 | COc1ccc(CC(=O)O)c(OCc2nn(C3CC3)c3ccc(-c4ccc5ccnc(N)c5c4)cc23)c1 [Compound 66e, 2-(2-((5-(1-aminoisoquinolin-7-yl)-1-cyclopropyl-1H-indazol-3-yl)methoxy)-4-methoxyphenyl)acetic acid] | < 1
5 | N=C(N)c1cccc(-c2ccc3c(c2)c(COc2ccccc2CC(=O)O)nn3C2CCCC2)c1 [Compound 224b, 2-(2-((5-(3-carbamimidoylphenyl)-1-cyclopentyl-1H-indazol-3-yl)methoxy)phenyl)acetic acid] | < 1
6 | CC(C)(C)OC(=O)N1CC(n2nc(COc3ccccc3CC(=O)O)c3cc(-c4cccc5c(N)nccc45)ccc32)C1 [Compound 142b, 2-(2-((5-(1-aminoisoquinolin-5-yl)-1-(1-(tert-butoxycarbonyl)azetidin-3-yl)-1H-indazol-3-yl)methoxy)phenyl)acetic acid] | < 1
7 | CCOC(=O)N1CC[C@H](n2nc(COc3ccccc3CC(=O)O)c3cc(-c4cccc5c(N)nccc45)ccc32)C1 [Compound 345e, (S)-2-(2-((5-(1-aminoisoquinolin-5-yl)-1-(1-(ethoxycarbonyl)pyrrolidin-3-yl)-1H-indazol-3-yl)methoxy)phenyl)acetic acid] | < 1
8 | CCc1cccc(OCc2nn(C3CCC3)c3ccc(-c4ccc5ccnc(N)c5c4)cc23)c1CC(=O)O [Compound 180g, 2-(2-((5-(1-aminoisoquinolin-7-yl)-1-cyclobutyl-1H-indazol-3-yl)methoxy)-6-ethylphenyl)acetic acid] | 1 to 10
9 | CCCn1nc(COc2ccccc2CC(=O)O)c2cc(-c3ccc4ccnc(N)c4c3)ccc21 [Compound 186e, 2-(2-((5-(1-aminoisoquinolin-7-yl)-1-propyl-1H-indazol-3-yl)methoxy)phenyl)acetic acid] | < 1
10 | COC(=O)Cc1ccc(OC)cc1OCc1c2cc(-c3ccc4ccnc(N)c4c3)ccc2nn1C1CCOC1 (stereo not shown) [Compound 13d, methyl 2-(2-((5-(1-aminoisoquinolin-7-yl)-2-(tetrahydrofuran-3-yl)-2H-indazol-3-yl)methoxy)-4-methoxyphenyl)acetate] | > 10
11 | CCn1nc(COc2ccccc2CC(=O)O)c2cc(-c3cccc4c(N)nccc34)ccc21 [Compound 178f, 2-(2-((5-(1-aminoisoquinolin-5-yl)-1-ethyl-1H-indazol-3-yl)methoxy)phenyl)acetic acid] | < 1
12 | Nc1nccc2c(-c3ccc4nn(C5CCC5)c(COc5cc(C(F)(F)F)ccc5CC(=O)O)c4c3)cccc12 [Compound 152b, 2-(2-((5-(1-aminoisoquinolin-5-yl)-2-cyclobutyl-2H-indazol-3-yl)methoxy)-4-(trifluoromethyl)phenyl)acetic acid] | 1 to 10
13 | Nc1nccc2c(-c3ccc4c(c3)c(COc3ccccc3CC(=O)O)nn4CC3CNC3)cccc12 [Compound 296b, 2-(2-((5-(1-aminoisoquinolin-5-yl)-1-(azetidin-3-ylmethyl)-1H-indazol-3-yl)methoxy)phenyl)acetic acid] | < 1
14 | N=C(N)c1cccc(-c2ccc3c(c2)c(COc2ccccc2CC(=O)O)nn3CC2CCC2)c1 [Compound 254c, 2-(2-((5-(3-carbamimidoylphenyl)-1-(cyclobutylmethyl)-1H-indazol-3-yl)methoxy)phenyl)acetic acid] | < 1
15 | CC(C)n1nc(COc2ccccc2CC(=O)O)c2cc(-c3ccc4nccc(N)c4c3)ccc21 [Compound 25c, 2-(2-((5-(4-aminoquinolin-6-yl)-1-isopropyl-1H-indazol-3-yl)methoxy)phenyl)acetic acid] | 1 to 10
16 | CC(C)n1nc(COc2ccccc2CC(=O)O)c2cc(-c3ccc4c(N)nccc4c3)ccc21 [Compound 99c, 2-(2-((5-(1-aminoisoquinolin-6-yl)-1-isopropyl-1H-indazol-3-yl)methoxy)phenyl)acetic acid] | 1 to 10
17 | Nc1nccc2ccc(-c3ccc4c(c3)c(COc3ccccc3CC(=O)O)nn4[C@@H]3CCOC3)cc12 [Compound 246b, (R)-2-(2-((5-(1-aminoisoquinolin-7-yl)-1-(tetrahydrofuran-3-yl)-1H-indazol-3-yl)methoxy)phenyl)acetic acid] | < 1
18 | Nc1nccc2ccc(-c3ccc4c(c3)c(COc3cccc(OC(F)(F)F)c3CC(=O)O)nn4C3CCOC3)cc12 (stereo not shown) [Compound 288d, 2-(2-((5-(1-aminoisoquinolin-7-yl)-1-(tetrahydrofuran-3-yl)-1H-indazol-3-yl)methoxy)-6-(trifluoromethoxy)phenyl)acetic acid] | < 1
19 | Nc1nccc2c(-c3ccc4nn(CC5CNC5)c(COc5ccccc5CC(=O)O)c4c3)cccc12 [Compound 140b, 2-(2-((5-(1-aminoisoquinolin-5-yl)-2-(azetidin-3-ylmethyl)-2H-indazol-3-yl)methoxy)phenyl)acetic acid] | 1 to 10
20 | CCC(=O)N1CCC2(CC1)CC(Oc1ccccc1CC(=O)O)c1cc(-c3cccc4c(N)nccc34)ccc12 (stereo not shown) [Compound 385c, 2-(2-((5-(1-aminoisoquinolin-5-yl)-1′-propionyl-2,3-dihydrospiro[indene-1,4′-piperidin]-3-yl)oxy)phenyl)acetic acid] | < 1

Next, values leading:

Row | IC50 [µM] | Structure (SMILES)
21 | < 1 | CC(=O)N1CCC2(CC1)CC(Oc1cccc(C)c1CC(=O)O)c1cc(-c3ccc4ccnc(N)c4c3)ccc12 (stereo not shown) [Compound 406c, 2-(2-((1′-acetyl-5-(1-aminoisoquinolin-7-yl)-2,3-dihydrospiro[indene-1,4′-piperidin]-3-yl)oxy)-6-methylphenyl)acetic acid]
22 | < 1 | CC(C)OC(=O)N1CC[C@@H](n2nc(COc3ccccc3CC(=O)O)c3cc(-c4ccc5ccnc(N)c5c4)ccc32)C1 [Compound 362c, (R)-2-(2-((5-(1-aminoisoquinolin-7-yl)-1-(1-(isopropoxycarbonyl)pyrrolidin-3-yl)-1H-indazol-3-yl)methoxy)phenyl)acetic acid]
23 | > 10 | COc1c(CN)cccc1-c1cc(OC)c2occ(COc3ccccc3CC(=O)O)c2c1 [Compound 324d, 2-(2-((5-(3-(aminomethyl)-2-methoxyphenyl)-7-methoxybenzofuran-3-yl)methoxy)phenyl)acetic acid]
24 | 1 to 10 | CCOC(=O)N1CC(n2nc3ccc(-c4cccc5c(N)nccc45)cc3c2COc2ccccc2CC(=O)O)C1 [Compound 126c, 2-(2-((5-(1-aminoisoquinolin-5-yl)-2-(1-(ethoxycarbonyl)azetidin-3-yl)-2H-indazol-3-yl)methoxy)phenyl)acetic acid]
25 | 1 to 10 | Nc1nccc2ccc(-c3ccc4nn([C@H]5CCN(CC(=O)O)C5)c(COc5ccccc5CC(=O)O)c4c3)cc12 [Compound 116b, (S)-2-(2-((5-(1-aminoisoquinolin-7-yl)-2-(1-(carboxymethyl)pyrrolidin-3-yl)-2H-indazol-3-yl)methoxy)phenyl)acetic acid]
26 | 1 to 10 | Cc1ccc(CC(=O)O)c(OCc2c3cc(-c4cccc5c(N)nccc45)ccc3nn2C2CCC2)c1 [Compound 18c, 2-(2-((5-(1-aminoisoquinolin-5-yl)-2-cyclobutyl-2H-indazol-3-yl)methoxy)-4-methylphenyl)acetic acid]
27 | < 1 | COc1ccc(CC(=O)O)c(OCc2nn(C)c3ccc(-c4ccc5ccnc(N)c5c4)cc23)c1 [Compound 71d, 2-(2-((5-(1-aminoisoquinolin-7-yl)-1-methyl-1H-indazol-3-yl)methoxy)-4-methoxyphenyl)acetic acid]
28 | < 1 | COCCN1CCC(n2nc(COc3ccccc3CC(=O)O)c3cc(-c4ccc5ccnc(N)c5c4)ccc32)C1 (stereo not shown) [Compound 304b, 2-(2-((5-(1-aminoisoquinolin-7-yl)-1-(1-(2-methoxyethyl)pyrrolidin-3-yl)-1H-indazol-3-yl)methoxy)phenyl)acetic acid]
29 | < 1 | Cc1cccc(OCc2nn(C3CCCC3)c3ccc(-c4cccc5c(N)nccc45)cc23)c1CC(=O)O [Compound 239f, 2-(2-((5-(1-aminoisoquinolin-5-yl)-1-cyclopentyl-1H-indazol-3-yl)methoxy)-6-methylphenyl)acetic acid]
30 | < 1 | Nc1nccc2c(-c3ccc4c(c3)[C@H](Oc3cccc(OC(F)(F)F)c3CC(=O)O)CC4)cccc12 [Compound 435b, (R)-2-(2-((6-(1-aminoisoquinolin-5-yl)-2,3-dihydro-1H-inden-1-yl)oxy)-6-(trifluoromethoxy)phenyl)acetic acid]
31 | < 1 | COc1ccc(CC(=O)O)c(OCc2nn(C(C)C)c3ccc(-c4ccc5ccnc(N)c5c4)cc23)c1 [Compound 61b, 2-(2-((5-(1-aminoisoquinolin-7-yl)-1-isopropyl-1H-indazol-3-yl)methoxy)-4-methoxyphenyl)acetic acid]

— US20240239752A1, “BICYCLIC HETEROAROMATIC INHIBITORS OF KLK5” (BioCryst Pharmaceuticals, Inc., priority 2021, published 2024)
